Patent US7332615B2, “Hydrophilic analogs of 4,8-dihydrobenzodithiophene-4,8-diones as anticancer agents” (Industrial Technology Research Institute, priority 2004, dated 2008)
Like-named read-outs stand apart in the source and are kept apart here.

What was measured:
[1] = tested on: p-gp-expressing epidermoid carcinoma of the nasopharynx (KB-VIN); experiment: Cytotoxicity Assays Method C, KB-VIN; format: cell-based; conditions: for IC50: 50% reduction in cell number after 72 hr of incubation
Source text: Cytotoxicity Assays Method C (KB, KB-VIN, AS49, HCT-8, PC-3) [K. H. Lee et. al. Planta Med. 54, 308-312 (1998), Monk A et. al. J. Natl. Cancer Inst. 83, 757-766 (1991).] The cell lines included epidermoid caninoma of the nasopharynx (KB), p-gp-expressing epidermoid caninoma of the nasopharynx (KB-VIN), lung carcinoma (A-549), ileocecal carinoma (HCT-8) and prostate cancer (PC-3) cell lines.

prostate cancer (PC-3) = experiment: Cytotoxicity Assays Method C, PC-3; format: cell-based; conditions: for IC50: 72 h, read-out: IC50 PC-3
[2] = tested on: ileocecal carcinoma (HCT-8); experiment: Cytotoxicity Assays Method C, HCT-8; format: cell-based; conditions: Homo sapiens, HCT-8, 72 h, read-out: IC50 HCT-8
lung carcinoma (A-549) = experiment: Cytotoxicity Assays Method C, A-549; format: cell-based; conditions: Homo sapiens, A549, 72 h, read-out: IC50 A549
[3] = tested on: epidermoid carcinoma of the nasopharynx (KB); experiment: Cytotoxicity Assays Method C, KB; format: cell-based; conditions: 72 h, read-out: IC50 KB
[4] = tested on: Human promyeloid leukemia HL-60 cells; experiment: Cytotoxicity Assays Method B (MTT proliferation assay), HL-60; format: cell-based; conditions: Homo sapiens, read-out: IC50 (concentration at which 50% of the cells are inhibited from growing)
Method: Cytotoxicity Assays Method B (HL-60) [H. M. Chen et al. Chin. Pharm. J. 53, 157-167 (2001)]
Human promyeloid leukemia HL-60 cells were obtained from the American Type
Culture Collection (Manassas, Va., USA) and the Culture Collection and Research Center(CCRC) (Tai wan, ROC). Human promyeloid leukemia HL-60 cells were cultured in suspension in RPMI-1640 medium (GIBCO, Grand Is land, USA), containing 10% fetal bovine se rum (GIBCO, Grand Is land, USA), 100 unit/mL penicillin, […] streptomycin and 1% L-glutamine at 37° C. in a humidified atmosphere of 5% CO2 in air. Cells were split every day to maintain the cell numbers between 2−5×10^5/mL. Cell numbers were assessed by the standard procedure of leukocyte counting using a hemocytometer and cell viability was checked by the ability of cells to exclude Trypan blue.
Cellular proliferation was determined by the MTT [3-(4,5-dimethylthiazol-2-yl)-2,5-diphenyltetrazolium bromide] as say. Briefly, […] of MTT (5 mg/mL) was added to each well of 96-well plates containing 1×10^5 cells after treatment with different concentrations of samples for 4 days. The reaction was stopped after 2 h by adding […] of 0.04 N HCl in isopropanol and the OD570 nm was determined by a minicolorimetric reader. Each concentration treatment was performed in triplicate.

NCI-H460 = experiment: Cytotoxicity Assays Method A (alamarBlue anti-proliferative assay), NCI-H460; format: cell-based
Source text: (§1) Cytotoxicity Assays Method A (HUVEC, MCF-7, HT-29, Hep 3B and NCl-H460) [S. A. Ahmed, R. M. Gogal Jr., and J. E. Walsh, Journal of Immunological Methods 170: 211-224, (1994): M. R. Boyd, Status of the NCl preclinical antitumor drug discovery screen. (Published by J. B. Lippincoft Company, Philadelphia, Pa. 19105, USA) Principles & Practices of Oncology Updates 3 # 10: 1-12, (1989); M. R. Boyd, et al. Data display and analysis strategies for the NCl disease-oriented in vitro antitumor drug screen. In: Cytotoxic anti-cancer drugs: models and concepts for drug discovery and development. Boston: Kluwer Academic, Pages; 11-34, (1992)]
(§2) The test compounds were dissolved in 100% DMSO and then diluted with sterile distilled water to obtain initial working solutions of 20000, 2000, 200, 20 and 2 μM in 80% DMSO. A 200 fold dilution was further made in culture media to generate final assay concentrations of 100, 10, 1, 0.1 and 0.01 μM in 0.4% DMSO.
(§3) Aliquots of 100 μl of cell suspension (about 1.5-3.0×10^3/well) were placed in 96-well microtiter plates in an atmosphere of 5% CO2 at 37° C. After 24 hours, 100 μl of growth medium and 1 μl of test solution or vehicle (80% DMSO) were added respectively per well in duplicate for an additional 72-hour incubation. Thus, the final concentration of DMSO was 0.4%. The test compounds, IIa-1, IIb-1 and VII-1 were evaluated at concentrations of 100, 10, 1, 0.1 and 0.01 μM. At the end of incubation, 20 μl of alamarBlue 90% reagent was added to each well for another 6-hour incubation before detection of cell viability by fluorescent intensity. Fluorescent intensity was measured using a Spectraflour Plus plate reader with excitation at 530 nm and emission at 590 nm.
(§4) The measured results was calculated by the following formula: PG(%)=100×(Mean Ftest−Mean Ftime0)/(Mean Fctrl−Mean Ftime0)] If(Mean Ftest−Mean Ftime0)<0, then PG(%)=100×(Mean Ftest−Mean Ftime0)/(Mean Ftime0−Mean Fblank) wherein PG represents percent growth;
(§5) A decrease of 50% or more (≧50%) in fluorescent intensity relative to the vehicle-treated control indicates significant cytostatic or cytotoxic activity, and semi-quantitative values for IC50, TGI and LC50 were then determined by nonlinear regression using GraphPad Prism (GraphPad Software, USA).
(§6) IC50 (50% Inhibition Concentration); Test compound concentration where the increase from times in the number or mass of treated cells was only 50% as much as the corresponding increase in the vehicle-control at the end of experiment.
(§7) TGI (Total Growth Inhibition): Test compound concentration where the number or mass of treated cells at the end of experiment was equal to that at time0.
(§8) LC50 (50% Lethal Concentration): Test compound concentration where the number or mass of treated cells at the end of experiment was half that at time.
(§9) The assays were used to detect changes in cell proliferation based on the ability of viable cells to cause alamarBlue to change from its oxidized to a reduced form. With the results obtained from the alamarBlue reaction, cell proliferation can be quantified and metabolic activity of viable cell can be examined.
(§10) The succinate derivatives of compounds IIa-1, IIb-1 and VII-1 were tested for possible effect on the proliferation of four human tumor cell lines ˜MCF-7 (breast), HT-29 (colon), Hep3B (liver), and NCl—H 460 (lung) as well as one human umbilical vein endothelial cell (HUVEC) at assay concentration from 0.01 to 100 μM, through serial 10-fold dilution.

MCF-7 = experiment: Cytotoxicity Assays Method A (alamarBlue anti-proliferative assay), MCF-7; format: cell-based
Source text: as §1, §2, §3, §4, §5, §6, §7, §8, §9, §10

HT-29 = experiment: Cytotoxicity Assays Method A (alamarBlue anti-proliferative assay), HT-29; format: cell-based
Source text: as §1, §2, §3, §4, §5, §6, §7, §8, §9, §10

[5] = Cytotoxicity Assays Method A (alamarBlue anti-proliferative assay), HUVEC; format: cell-based; conditions: human, HUVEC (human umbilical vein endothelial cells), 72-hour incubation, alamarBlue
Source text: as §1, §2, §3, §4, §5, §6, §7, §8, §9, §10

HUVEC = experiment: as above; format: cell-based
Source text: as §1, §2, §3, §4, §5, §6, §7, §8, §9, §10

Hep 3B = experiment: Cytotoxicity Assays Method A (alamarBlue anti-proliferative assay), Hep 3B; format: cell-based
Source text: as §1, §2, §3, §4, §5, §6, §7, §8, §9, §10

## O=C(O)CCCC(=O)OCc1cc2c(s1)C(=O)c1sccc1C2=O [IIa-2, Mono-[1-(4,8-dioxo-4,8-dihydrobenzo[1,2-b:5,4-b′]dithiophen-2-yl)-methyl]pentanedioate]
[1]; Homo sapiens, KBVIN, 72 h
  IC50: 1390 nM
Prostate cancer (PC-3)
  IC50: 750 nM
[2]
  IC50: 1660 nM
Lung carcinoma (A-549)
  IC50: 2080 nM
[3]
  IC50: 2220 nM
other
  melting point: 220 °C (dec.)
[4]; 96 h, HL-60, MTT, treatment for 4 days
  IC50: 700 nM

## CC(OC(=O)CCC(=O)O)c1cc2c(s1)C(=O)c1ccsc1C2=O (stereo not drawn) [VII-1, Mono-[1-(4,8-dioxo-4,8-dihydroxybenzo[1,2-b;4,5-b′]dithiophen-2-yl)-ethyl]succinate]
[1]
  IC50: 220 nM
[1]; summary of Table 3
  activity against the MDR cell line KB-VIN (in words): potent activity
NCI-H460; Homo sapiens, NCI-H460, 72 h, read-out: IC50 (50% Inhibition Concentration)
  IC50: 410 nM
NCI-H460; Homo sapiens, NCI-H460, 72-hour incubation, alamarBlue, read-out: LC50 (50% Lethal Concentration)
  CC50: 3000 nM
NCI-H460; NCI-H460, 72-hour incubation, alamarBlue
  TGI (Total growth Inhibition): 1100 nM
MCF-7; Homo sapiens, MCF7, 72 h, read-out: IC50 (50% Inhibition Concentration)
  IC50: 960 nM
MCF-7; Homo sapiens, MCF7, MCF-7, 72-hour incubation, alamarBlue, read-out: LC50 (50% Lethal Concentration)
  CC50: 31000 nM
MCF-7; MCF-7, 72-hour incubation, alamarBlue
  TGI (Total growth Inhibition): 5500 nM
MCF-7; MCF-7, summary of Table 1
  cytotoxicity against MCF-7 (in words): significant cytotoxicity
Prostate cancer (PC-3)
  IC50: 160 nM
Prostate cancer (PC-3); PC-3, summary of Table 3
  activity against the androgen-insensitive prostate cancer cell line PC-3 (in words): potent activity
[2]
  IC50: 420 nM
HT-29; HT-29, 72-hour incubation, alamarBlue
  TGI (Total growth Inhibition): 38000 nM
HT-29; HT-29, summary of Table 1
  activity against HT-29 (in words): moderate activity
HT-29; Homo sapiens, HT-29, 72 h, read-out: IC50 (50% Inhibition Concentration)
  IC50: 4500 nM
HT-29; Homo sapiens, HT-29, 72-hour incubation, alamarBlue
  LC50 (50% lethal concentration): > 100000 nM
Lung carcinoma (A-549)
  IC50: 470 nM
[5]
  LC50 (50% lethal concentration) at 72 h: > 100000 nM
HUVEC; 72-hour incubation, alamarBlue
  TGI (Total growth Inhibition): 57000 nM
HUVEC; Homo sapiens, 72 h, read-out: IC50 (50% Inhibition Concentration)
  IC50: 11000 nM
[3]
  IC50: 190 nM
[4]; HL-60, 96 h
  IC50: 260 nM
Hep 3B; Hep3B, summary of Table 1
  cytotoxicity against Hep3B (in words): significant cytotoxicity
Hep 3B; Hep-3B, 72-hour incubation, alamarBlue
  TGI (Total growth Inhibition): 1900 nM
Hep 3B; Homo sapiens, Hep3B, 72 h, read-out: IC50 (50% Inhibition Concentration)
  IC50: 1000 nM
Hep 3B; Homo sapiens, Hep3B, Hep-3B, 72-hour incubation, alamarBlue, read-out: LC50 (50% Lethal Concentration)
  CC50: 3400 nM
